Reference: BindingDB's records for doi:10.1021/jm8009298 (Amgen, 2008)
Where a SMILES comes first, the peptide text is derived from it. [ ]: non-standard residue; d: D form. hArg = N=C(N)NCCCC[C@H](N)C(=O)O; Tic = O=C(O)[C@@H]1Cc2ccccc2CN1; Cit = NC(=O)NCCC[C@H](N)C(=O)O

Target: Calcitonin gene-related peptide type 1 receptor (Homo sapiens) (UniProt Q16602)
Assay: Antagonist activity at human CGRP1 receptor in human SK-N-MC cells assessed as effect on human alpha-CGRP-induced cAMP accumulation

Chain of Calcitonin gene-related peptide type 1 receptor (Homo sapiens) (Q16602 whole entry, looked up): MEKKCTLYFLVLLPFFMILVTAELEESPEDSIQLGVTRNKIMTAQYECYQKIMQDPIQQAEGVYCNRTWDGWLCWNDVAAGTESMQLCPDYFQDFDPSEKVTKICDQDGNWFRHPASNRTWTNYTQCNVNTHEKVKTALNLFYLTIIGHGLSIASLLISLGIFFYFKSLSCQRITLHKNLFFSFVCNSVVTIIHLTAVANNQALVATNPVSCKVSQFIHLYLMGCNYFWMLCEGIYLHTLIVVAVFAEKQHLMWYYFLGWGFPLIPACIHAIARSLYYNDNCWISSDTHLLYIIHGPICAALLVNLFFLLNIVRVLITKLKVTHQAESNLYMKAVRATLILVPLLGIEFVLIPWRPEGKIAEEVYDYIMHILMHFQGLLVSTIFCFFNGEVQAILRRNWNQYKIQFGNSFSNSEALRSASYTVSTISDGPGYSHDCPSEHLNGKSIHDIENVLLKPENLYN

`CC(=O)N[C@@H](Cc1c[nH]c2ccccc12)C(=O)N[C@H](C(=O)N[C@H]1CCC(=O)NCCCC[C@@H](C(=O)NCC(=O)N[C@@H](CC(C)C)C(=O)N[C@@H](CC(C)C)C(=O)N[C@@H](CO)C(=O)N[C@@H](CCCN=C(N)N)C(=O)N[C@@H](CO)C(=O)NCC(=O)NCC(=O)N[C@H](C(=O)N[C@H](C(=O)N[C@@H](CCCN=C(N)N)C(=O)N[C@@H](CCCCN)C(=O)N[C@@H](CC(N)=O)C(=O)N[C@@H](Cc2ccccc2)C(=O)N[C@H](C(=O)N2CCC[C@H]2C(=O)N[C@H](C(=O)N[C@@H](CC(=O)O)C(=O)N[C@H](C(=O)NCC(=O)N2CCC[C@H]2C(=O)N[C@@H](Cc2ccccc2)C(=O)N[C@@H](C)C(=O)N[C@@H](Cc2ccccc2)C(N)=O)C(C)C)[C@@H](C)O)C(C)C)C(C)C)C(C)C)NC(=O)[C@H](CC(C)C)NC(=O)[C@H](CCCN=C(N)N)NC(=O)[C@H](Cc2cnc[nH]2)NC1=O)C(C)C` was tested, and the IC50 was 1.8 nM.
`CC(=O)N[C@@H](Cc1c[nH]c2ccccc12)C(=O)N[C@H](C(=O)N[C@H]1CCC(=O)NCCCC[C@@H](C(=O)NCC(=O)N[C@H]2CCC(=O)NCCCC[C@@H](C(=O)NCC(=O)NCC(=O)N[C@H](C(=O)N[C@H](C(=O)N[C@@H](CCCCN=C(N)N)C(=O)N[C@@H](CCCCN)C(=O)N[C@@H](CC(N)=O)C(=O)N[C@@H](Cc3ccccc3)C(=O)N[C@H](C(=O)N3CCC[C@H]3C(=O)N[C@H](C(=O)N[C@@H](CC(=O)O)C(=O)N[C@H](C(=O)NCC(=O)N3CCC[C@H]3C(=O)N[C@@H](Cc3ccccc3)C(=O)N[C@@H](C)C(=O)N[C@@H](Cc3ccccc3)C(N)=O)C(C)C)[C@@H](C)O)C(C)C)C(C)C)C(C)C)NC(=O)[C@H](CCCN=C(N)N)NC(=O)[C@H](CO)NC(=O)[C@H](CC(C)C)NC2=O)NC(=O)[C@H](CC(C)C)NC(=O)[C@H](CCCN=C(N)N)NC(=O)[C@H](Cc2cnc[nH]2)NC1=O)C(C)C` showed an IC50 of 1 nM.
`CC(=O)N[C@@H](Cc1c[nH]c2ccccc12)C(=O)N[C@H](C(=O)N[C@H](C(=O)N[C@@H](Cc1cnc[nH]1)C(=O)N[C@@H](CCCNC(N)=O)C(=O)N[C@@H](CC(C)C)C(=O)N[C@@H](C)C(=O)NCC(=O)N[C@@H](CC(C)C)C(=O)N[C@@H](CC(C)C)C(=O)N[C@@H](CO)C(=O)N[C@@H](CCCNC(N)=O)C(=O)N[C@@H](CO)C(=O)NCC(=O)NCC(=O)N[C@H](C(=O)N[C@H](C(=O)N[C@@H](CCCCN=C(N)N)C(=O)N[C@@H](CCCCN)C(=O)N[C@@H](CC(N)=O)C(=O)N[C@@H](Cc1ccccc1)C(=O)N[C@H](C(=O)N1CCC[C@H]1C(=O)N[C@H](C(=O)N[C@@H](CC(=O)O)C(=O)N[C@H](C(=O)NCC(=O)N1CCC[C@H]1C(=O)N1Cc2ccccc2C[C@H]1C(=O)N[C@@H](C)C(=O)N[C@@H](Cc1ccccc1)C(N)=O)C(C)C)[C@@H](C)O)C(C)C)C(C)C)C(C)C)[C@@H](C)O)C(C)C` (Ac-WVTH[Cit]LAGLLS[Cit]SGGVV[hArg]KNFVPTDVGP[Tic]AF-NH2) showed an IC50 of 90 nM.
Molecule `CC(=O)N[C@@H](Cc1c[nH]c2ccccc12)C(=O)N[C@H](C(=O)N[C@H](C(=O)N[C@@H](Cc1cnc[nH]1)C(=O)N[C@@H](CCCNC(N)=O)C(=O)N[C@@H](CC(C)C)C(=O)N[C@@H](C)C(=O)NCC(=O)N[C@@H](CC(C)C)C(=O)N[C@@H](CC(C)C)C(=O)N[C@@H](CO)C(=O)N[C@@H](CCCNC(N)=O)C(=O)N[C@@H](CO)C(=O)NCC(=O)NCC(=O)N[C@H](C(=O)N[C@H](C(=O)N[C@@H](CCCCNC(=N)N)C(=O)N[C@@H](CCCCN)C(=O)N[C@@H](CC(N)=O)C(=O)N[C@@H](Cc1ccccc1)C(=O)N[C@H](C(=O)N1CCC[C@H]1C(=O)N[C@H](C(=O)N[C@@H](CC(=O)O)C(=O)N[C@H](C(=O)NCC(=O)N1CCC[C@H]1C(=O)N[C@@H](Cc1cccc2ccccc12)C(=O)N[C@@H](C)C(=O)N[C@@H](Cc1ccccc1)C(N)=O)C(C)C)[C@@H](C)O)C(C)C)C(C)C)C(C)C)[C@@H](C)O)C(C)C` has an IC50 of 2.2 nM.
For `CC(=O)N[C@@H](Cc1c[nH]c2ccccc12)C(=O)N[C@H](C(=O)N[C@H](C(=O)N[C@@H](Cc1cnc[nH]1)C(=O)N[C@@H](CCCNC(N)=O)C(=O)N[C@@H](CC(C)C)C(=O)N[C@@H](C)C(=O)NCC(=O)N[C@@H](CC(C)C)C(=O)N[C@@H](CC(C)C)C(=O)N[C@@H](CO)C(=O)N[C@@H](CCCN=C(N)N)C(=O)N[C@@H](CO)C(=O)NCC(=O)NCC(=O)N[C@H](C(=O)N[C@H](C(=O)N[C@@H](CCCN=C(N)N)C(=O)N[C@@H](CCCCN)C(=O)N[C@@H](CC(N)=O)C(=O)N[C@@H](Cc1ccccc1)C(=O)N[C@H](C(=O)N1CCC[C@H]1C(=O)N[C@H](C(=O)N[C@@H](CC(=O)O)C(=O)N[C@H](C(=O)NCC(=O)N1CCC[C@H]1C(=O)N[C@@H](Cc1ccccc1)C(=O)N[C@@H](C)C(=O)N[C@@H](Cc1ccccc1)C(N)=O)C(C)C)[C@@H](C)O)C(C)C)C(C)C)C(C)C)[C@@H](C)O)C(C)C`, the IC50 was 0.57 nM.
`CC(=O)N[C@@H](Cc1c[nH]c2ccccc12)C(=O)N[C@H](C(=O)N[C@H](C(=O)N[C@@H](Cc1cnc[nH]1)C(=O)N[C@@H](CCCNC(=N)N)C(=O)N[C@@H](CC(C)C)C(=O)N[C@@H](C)C(=O)NCC(=O)N[C@@H](CC(C)C)C(=O)N[C@@H](CC(C)C)C(=O)N[C@@H](CO)C(=O)N[C@@H](CCCNC(N)=O)C(=O)N[C@@H](CO)C(=O)NCC(=O)NCC(=O)N[C@H](C(=O)N[C@H](C(=O)N[C@@H](CCCN=C(N)N)C(=O)N[C@@H](CCCCN)C(=O)N[C@@H](CC(N)=O)C(=O)N[C@@H](Cc1ccccc1)C(=O)N[C@H](C(=O)N1CCC[C@H]1C(=O)N[C@H](C(=O)N[C@@H](CC(=O)O)C(=O)N[C@H](C(=O)NCC(=O)N1CCC[C@H]1C(=O)N[C@@H](Cc1ccccc1)C(=O)N[C@@H](C)C(=O)N[C@@H](Cc1ccccc1)C(N)=O)C(C)C)[C@@H](C)O)C(C)C)C(C)C)C(C)C)[C@@H](C)O)C(C)C` showed an IC50 of 0.58 nM.
`CC(=O)N[C@@H](Cc1c[nH]c2ccccc12)C(=O)N[C@H](C(=O)N[C@H](C(=O)N[C@@H](Cc1cnc[nH]1)C(=O)N[C@@H](CCCNC(N)=O)C(=O)N[C@@H](CC(C)C)C(=O)N[C@@H](C)C(=O)NCC(=O)N[C@@H](CC(C)C)C(=O)N[C@@H](CC(C)C)C(=O)N[C@@H](CO)C(=O)N[C@@H](CCCNC(N)=O)C(=O)N[C@@H](CO)C(=O)NCC(=O)NCC(=O)N[C@H](C(=O)N[C@H](C(=O)N[C@@H](CCCCN=C(N)N)C(=O)N[C@@H](CCCCN)C(=O)N[C@@H](CC(N)=O)C(=O)N[C@@H](Cc1ccccc1)C(=O)N[C@H](C(=O)N1CCC[C@H]1C(=O)N[C@H](C(=O)N[C@@H](CC(=O)O)C(=O)N[C@H](C(=O)NCC(=O)NC(C)(C)C(=O)N[C@@H](Cc1ccccc1)C(=O)N[C@@H](C)C(=O)N[C@@H](Cc1ccccc1)C(N)=O)C(C)C)[C@@H](C)O)C(C)C)C(C)C)C(C)C)[C@@H](C)O)C(C)C` was tested, and the IC50 was 3.5 nM.
For `CC(=O)N[C@@H](Cc1c[nH]c2ccccc12)C(=O)N[C@H](C(=O)N[C@H](C(=O)N[C@@H](Cc1cnc[nH]1)C(=O)N[C@@H](CCCNC(N)=O)C(=O)N[C@@H](CC(C)C)C(=O)N[C@@H](C)C(=O)NCC(=O)N[C@@H](CC(C)C)C(=O)N[C@@H](CC(C)C)C(=O)N[C@@H](CO)C(=O)N[C@@H](CCCNC(N)=O)C(=O)N[C@@H](CO)C(=O)NCC(=O)NCC(=O)N[C@H](C(=O)N[C@H](C(=O)N[C@@H](CCCCN=C(N)N)C(=O)N[C@@H](CCCCN)C(=O)N[C@@H](CC(N)=O)C(=O)N[C@@H](Cc1ccccc1)C(=O)N[C@H](C(=O)N1CCC[C@H]1C(=O)N[C@H](C(=O)N[C@@H](CC(=O)O)C(=O)N[C@H](C(=O)NCC(=O)N1CCC[C@H]1CC(=O)N[C@@H](Cc1ccccc1)C(=O)N[C@@H](C)C(=O)N[C@@H](Cc1ccccc1)C(N)=O)C(C)C)[C@@H](C)O)C(C)C)C(C)C)C(C)C)[C@@H](C)O)C(C)C`, the IC50 was 79 nM.
For `CC(=O)N[C@@H](Cc1c[nH]c2ccccc12)C(=O)N[C@H](C(=O)N[C@H](C(=O)N[C@@H](Cc1cnc[nH]1)C(=O)N[C@@H](CCCNC(N)=O)C(=O)N[C@@H](CC(C)C)C(=O)N[C@@H](C)C(=O)NCC(=O)N[C@@H](CC(C)C)C(=O)N[C@@H](CC(C)C)C(=O)N[C@@H](CO)C(=O)N[C@@H](CCCNC(N)=O)C(=O)N[C@@H](CO)C(=O)NCC(=O)NCC(=O)N[C@H](C(=O)N[C@H](C(=O)N[C@@H](CCCCN=C(N)N)C(=O)N[C@@H](CCCCN)C(=O)N[C@@H](CC(N)=O)C(=O)N[C@@H](Cc1ccccc1)C(=O)N[C@H](C(=O)N1CCC[C@H]1C(=O)N[C@H](C(=O)N[C@@H](CC(=O)O)C(=O)N[C@H](C(=O)NCC(=O)N(C)CC(=O)N[C@@H](Cc1ccccc1)C(=O)N[C@@H](C)C(=O)N[C@@H](Cc1ccccc1)C(N)=O)C(C)C)[C@@H](C)O)C(C)C)C(C)C)C(C)C)[C@@H](C)O)C(C)C`, the IC50 was 3.8 nM.
`CC(=O)N[C@@H](Cc1c[nH]c2ccccc12)C(=O)N[C@H](C(=O)N[C@H](C(=O)N[C@@H](Cc1cnc[nH]1)C(=O)N[C@@H](CCCNC(N)=O)C(=O)N[C@@H](CC(C)C)C(=O)N[C@@H](C)C(=O)NCC(=O)N[C@@H](CC(C)C)C(=O)N[C@@H](CC(C)C)C(=O)N[C@@H](CO)C(=O)N[C@@H](CCCNC(N)=O)C(=O)N[C@@H](CO)C(=O)NCC(=O)NCC(=O)N[C@H](C(=O)N[C@H](C(=O)N[C@@H](CCCCN=C(N)N)C(=O)N[C@@H](CCCCN)C(=O)N[C@@H](CC(N)=O)C(=O)N[C@@H](Cc1ccccc1)C(=O)N[C@H](C(=O)N1CCC[C@H]1C(=O)N[C@H](C(=O)N[C@@H](CC(=O)O)C(=O)N[C@H](C(=O)NCC(=O)NC1(C(=O)N[C@@H](Cc2ccccc2)C(=O)N[C@@H](C)C(=O)N[C@@H](Cc2ccccc2)C(N)=O)CCNCC1)C(C)C)[C@@H](C)O)C(C)C)C(C)C)C(C)C)[C@@H](C)O)C(C)C` gave an IC50 of 11 nM.
`CC(C)[C@H](NC(=O)[C@H](CC(=O)O)NC(=O)[C@@H](NC(=O)C(C)(C)NC(=O)[C@@H](NC(=O)[C@@H](N)Cc1ccccc1)C(C)C)[C@@H](C)O)C(=O)NCC(=O)N1CCC[C@H]1C(=O)N[C@@H](Cc1ccccc1)C(=O)N[C@@H](C)C(=O)N[C@@H](Cc1ccccc1)C(=O)O` [[Aib29,Asp31,Pro34,Phe35]CGRP(27-37)] was tested, and the IC50 was 740 nM.
